The values that follow are results of earlier work, collected in patent US7611733B2, “Nanoparticle formulations of platinum compounds” (priority 2004, dated 2009).

Where a name gives a salt, the structure may show the parent alone.

This series relates to variety of tumor cell lines.

As to `[NH2][Pt+]([NH2])([Cl])[NH]CCCCCC[NH2+]CC[NH2+]CCCCCC[NH][Pt+]([NH2])([NH2])[Cl]` [Formula II, bis{trans(diammine)(chloro)platinum(II)}μ(1,16-diamino-7,10-diazahexadecane-N1,N16) dinitrate salt. 2HNO3], the antitumor activity entry was “outstanding antitumor activity”.
